Calls of active or inactive are those of the source.
How the values were obtained:
[1] = molecular target: Potassium channel subfamily K member 9 (Homo sapiens, UniProt Q9NPC2); test: KCNK9 flux blockade, concentration-response – cell-based, FluxOR thallium flux, selectivity assay for TASK1 inhibitor project, SAR follow-up (AID 652211); type: functional;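 further: potency is for inhibitors of the channel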
[2] = molecular target: T1, Methionyl-tRNA synthetase, putative (Trypanosoma brucei brucei, UniProt Q38C91); type: functional, Trypanosoma brucei brucei strain 927/4 GUTat10.1
T1 sequence (Q38C91 whole entry): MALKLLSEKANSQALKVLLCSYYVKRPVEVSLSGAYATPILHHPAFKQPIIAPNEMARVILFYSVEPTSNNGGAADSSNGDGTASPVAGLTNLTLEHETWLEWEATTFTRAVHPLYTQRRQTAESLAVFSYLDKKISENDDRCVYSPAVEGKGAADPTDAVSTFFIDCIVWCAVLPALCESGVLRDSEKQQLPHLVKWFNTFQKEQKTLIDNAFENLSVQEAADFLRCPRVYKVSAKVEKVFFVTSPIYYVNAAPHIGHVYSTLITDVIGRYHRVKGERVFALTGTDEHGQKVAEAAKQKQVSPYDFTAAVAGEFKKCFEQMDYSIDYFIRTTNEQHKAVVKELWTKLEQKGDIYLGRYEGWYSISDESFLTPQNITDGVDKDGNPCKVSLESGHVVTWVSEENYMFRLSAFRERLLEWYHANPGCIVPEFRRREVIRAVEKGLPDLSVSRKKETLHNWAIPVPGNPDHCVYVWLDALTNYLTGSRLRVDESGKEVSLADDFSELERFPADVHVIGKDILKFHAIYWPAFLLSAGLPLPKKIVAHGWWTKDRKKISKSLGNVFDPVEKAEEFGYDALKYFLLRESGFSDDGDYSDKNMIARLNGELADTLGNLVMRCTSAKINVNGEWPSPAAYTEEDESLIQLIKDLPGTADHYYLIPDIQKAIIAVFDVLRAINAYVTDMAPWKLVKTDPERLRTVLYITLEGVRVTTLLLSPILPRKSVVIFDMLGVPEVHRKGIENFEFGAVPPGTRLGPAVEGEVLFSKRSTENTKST

[3] = Counterscreen for inhibitors of Trypanosoma brucei methionyl tRNA synthetase (MetRS): Luminescence-based cell-based high throughput dose response assay to identify compounds that are cytotoxic to Jurkat human T lymphocyte cells.; type: functional
[4] = molecular target: T1, Methionyl-tRNA synthetase, putative; type: functional, Trypanosoma brucei brucei strain 927/4 GUTat10.1; remark: listed apart in the source
[5] = tested on: Vero; test: viability loss in Vero cells – cell-based, plate reader, cherry-pick samples, cytotoxicity control, dose response (AID 687020); type: functional; conditions: Chlorocebus sabaeus
[6] = tested on: A549; test: viability loss in A549 cells – cell-based, plate reader, cherry-pick samples, cytotoxicity control, dose response (AID 687028); type: functional; conditions: Homo sapiens
[7] = molecular target: T2, Calpain-2 catalytic subunit (Sus scrofa, UniProt P43367); test: m-calpain protease blockers, concentration series – biochemical, fluorogenic peptide substrate, dose response (AID 1420); type: functional
T2 sequence (P43367 whole entry): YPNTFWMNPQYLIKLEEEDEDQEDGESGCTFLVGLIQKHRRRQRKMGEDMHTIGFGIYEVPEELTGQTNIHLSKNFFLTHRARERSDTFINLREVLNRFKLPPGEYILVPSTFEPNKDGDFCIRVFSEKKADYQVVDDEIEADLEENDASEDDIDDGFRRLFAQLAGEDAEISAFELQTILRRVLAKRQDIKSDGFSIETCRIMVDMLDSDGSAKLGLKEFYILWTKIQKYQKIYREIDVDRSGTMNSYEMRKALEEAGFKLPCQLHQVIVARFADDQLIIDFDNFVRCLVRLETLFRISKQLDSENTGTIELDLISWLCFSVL

[8] = molecular target: T3, Low molecular weight phosphotyrosine protein phosphatase (Homo sapiens, UniProt P24666); type: functional; conditions: read-out: IC50_Mean
T3 sequence (P24666 whole entry): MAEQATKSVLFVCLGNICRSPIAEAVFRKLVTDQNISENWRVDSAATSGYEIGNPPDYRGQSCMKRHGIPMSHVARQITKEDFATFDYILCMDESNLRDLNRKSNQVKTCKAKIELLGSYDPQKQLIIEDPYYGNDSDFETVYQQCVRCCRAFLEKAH

[9] = molecular target: T3, Low molecular weight phosphotyrosine protein phosphatase; type: functional; conditions: read-out: IC50_Mean; remark: listed apart in the source
[10] = cells; type: functional, cell-based
[11] = molecular target: T4, Trace amine-associated receptor 1 (Homo sapiens, UniProt Q96RJ0); test: Fluorescence-based cell-based high throughput dose response assay to identify agonists of the human trace amine associated receptor 1 (TAAR1).; type: functional
T4 sequence (Q96RJ0 whole entry): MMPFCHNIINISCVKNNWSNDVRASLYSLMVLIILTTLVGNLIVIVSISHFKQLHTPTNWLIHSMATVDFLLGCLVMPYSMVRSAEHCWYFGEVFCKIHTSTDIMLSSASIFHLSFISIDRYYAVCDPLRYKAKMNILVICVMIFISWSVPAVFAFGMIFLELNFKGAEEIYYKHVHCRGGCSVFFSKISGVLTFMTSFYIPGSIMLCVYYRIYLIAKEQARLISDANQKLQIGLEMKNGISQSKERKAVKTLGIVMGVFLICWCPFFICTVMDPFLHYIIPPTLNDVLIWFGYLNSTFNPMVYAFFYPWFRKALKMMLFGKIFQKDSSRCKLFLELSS

[12] = molecular target: T4, Trace amine-associated receptor 1; test: Counterscreen for agonists of the human trace amine associated receptor 1 (hTAAR1): Fluorescence-based cell-based high throughput dose response assay to identify hTAAR1 agonist that also desensitize TAAR1 receptor response.; type: functional
[13] = cells; type: functional, cell-based; remark: listed apart in the source
[14] = molecular target: T5, SUMO-activating enzyme (Homo sapiens, UniProt Q9UBT2); test: blockers of UBC9-mediated SUMO conjugation – biochemical, AlphaScreen, SUMOylation inhibitor project, confirmation (AID 2018); type: functional
T5 sequence (Q9UBE0 whole entry): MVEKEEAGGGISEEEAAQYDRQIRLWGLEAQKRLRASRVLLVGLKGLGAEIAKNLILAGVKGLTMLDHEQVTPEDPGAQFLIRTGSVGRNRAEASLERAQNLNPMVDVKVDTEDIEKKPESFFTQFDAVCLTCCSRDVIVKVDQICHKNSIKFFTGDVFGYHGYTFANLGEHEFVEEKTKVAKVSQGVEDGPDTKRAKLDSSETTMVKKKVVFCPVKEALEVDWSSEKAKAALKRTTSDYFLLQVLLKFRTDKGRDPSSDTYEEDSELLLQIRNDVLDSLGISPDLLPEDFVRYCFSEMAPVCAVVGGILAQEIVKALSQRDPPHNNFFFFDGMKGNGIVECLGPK
T5 sequence (Q9UBT2 whole entry): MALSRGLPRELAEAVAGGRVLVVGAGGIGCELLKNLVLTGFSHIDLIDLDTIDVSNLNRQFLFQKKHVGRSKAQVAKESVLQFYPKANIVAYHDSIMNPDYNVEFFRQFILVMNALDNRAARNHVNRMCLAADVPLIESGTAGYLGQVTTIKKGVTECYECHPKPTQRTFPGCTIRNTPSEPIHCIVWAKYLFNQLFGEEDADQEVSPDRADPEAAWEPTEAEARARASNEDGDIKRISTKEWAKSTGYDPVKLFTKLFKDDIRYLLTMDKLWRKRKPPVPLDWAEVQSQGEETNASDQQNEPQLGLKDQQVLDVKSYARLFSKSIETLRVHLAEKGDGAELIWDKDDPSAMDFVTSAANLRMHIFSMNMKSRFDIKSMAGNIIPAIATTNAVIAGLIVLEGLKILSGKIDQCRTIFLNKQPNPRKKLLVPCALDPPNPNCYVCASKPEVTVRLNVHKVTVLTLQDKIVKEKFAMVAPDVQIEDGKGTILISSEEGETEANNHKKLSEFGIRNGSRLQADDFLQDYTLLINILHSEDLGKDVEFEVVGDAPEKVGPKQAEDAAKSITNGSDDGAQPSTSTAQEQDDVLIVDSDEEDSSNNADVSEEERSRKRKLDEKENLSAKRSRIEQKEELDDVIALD

[15] = molecular target: T5, SUMO-activating enzyme; test: blockers of SAE1/SAE2–UBC9 SUMO transfer – biochemical, HTRF, uHTS, primary screen (AID 2006); type: protein-complex assay
[16] = molecular target: T6, Sentrin-specific protease 8 (Homo sapiens, UniProt Q96LD8); type: functional
T6 sequence (Q96LD8 whole entry): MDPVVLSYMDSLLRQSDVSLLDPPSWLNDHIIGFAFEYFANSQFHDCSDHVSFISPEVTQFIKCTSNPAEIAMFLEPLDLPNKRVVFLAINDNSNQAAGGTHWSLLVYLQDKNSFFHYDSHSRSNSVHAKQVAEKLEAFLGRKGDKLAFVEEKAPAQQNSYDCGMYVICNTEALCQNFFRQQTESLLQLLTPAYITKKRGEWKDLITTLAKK

[17] = molecular target: T6, Sentrin-specific protease 8; type: functional; remark: listed apart in the source
[18] = cells; type: functional, cell-based; remark: listed apart in the source
[19] = molecular target: Nuclear receptor subfamily 0 group B member 1 (Homo sapiens, UniProt P51843); type: functional, cell-based;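 further: HEK293T cells transfected with SF-1 and DAX-1 plus StAR promoter luciferase reporter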
Chain of Nuclear receptor subfamily 0 group B member 1 (P51843 whole entry): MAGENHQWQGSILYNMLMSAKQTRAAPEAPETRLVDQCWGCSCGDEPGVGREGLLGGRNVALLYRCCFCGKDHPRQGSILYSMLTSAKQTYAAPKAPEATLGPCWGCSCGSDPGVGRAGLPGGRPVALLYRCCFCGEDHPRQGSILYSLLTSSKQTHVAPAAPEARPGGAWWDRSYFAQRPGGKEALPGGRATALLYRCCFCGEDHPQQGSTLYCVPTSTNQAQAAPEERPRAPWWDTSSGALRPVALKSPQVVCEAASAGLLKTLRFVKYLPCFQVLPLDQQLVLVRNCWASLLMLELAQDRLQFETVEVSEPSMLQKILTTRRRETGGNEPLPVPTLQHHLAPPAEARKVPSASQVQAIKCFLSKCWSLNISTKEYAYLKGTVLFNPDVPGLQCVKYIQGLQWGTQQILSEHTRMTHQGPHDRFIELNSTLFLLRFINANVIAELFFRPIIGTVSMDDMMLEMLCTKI

[20] = mouse fibroblast viability loss – cell-based, cherry-pick samples, set 2, cytotoxicity control for T. cruzi growth inhibitor project, dose response (AID 651817); type: functional; conditions: NIH3T3
[21] = Late stage assay provider results from the probe development effort to identify inhibitors of the Plasmodium falciparum M17 Leucine Aminopeptidase (M17LAP): radiolabel-based cell-based dose response assay to identify compounds that inhibit P. falciparum growth in RBCs Set 2.; type: functional
[22] = molecular target: Paired box protein Pax-8 (Homo sapiens, UniProt Q06710); test: PAX8 transcriptional activity inhibition in RMG-I – RMG-I cells, luciferase, cherry-pick, dose response (AID 687027); type: functional, cell-based;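 further: luciferase reporter driven by Pax8 target thyroperoxidase promoter measured by SteadyGlo luminescence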
Chain of Paired box protein Pax-8 (Q06710 whole entry): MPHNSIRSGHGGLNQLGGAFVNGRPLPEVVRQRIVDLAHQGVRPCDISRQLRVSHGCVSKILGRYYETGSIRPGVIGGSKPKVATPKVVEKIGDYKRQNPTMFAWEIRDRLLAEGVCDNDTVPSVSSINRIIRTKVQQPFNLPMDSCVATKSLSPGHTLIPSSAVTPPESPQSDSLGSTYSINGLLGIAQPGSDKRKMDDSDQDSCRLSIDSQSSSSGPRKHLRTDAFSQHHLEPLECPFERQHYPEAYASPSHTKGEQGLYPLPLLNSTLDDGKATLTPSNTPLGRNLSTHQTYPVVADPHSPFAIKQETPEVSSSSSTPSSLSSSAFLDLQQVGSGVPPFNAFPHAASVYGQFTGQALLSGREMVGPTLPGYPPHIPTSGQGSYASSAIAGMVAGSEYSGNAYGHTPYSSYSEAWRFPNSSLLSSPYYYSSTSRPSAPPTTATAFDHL

[23] = CMV-driven luciferase expression suppression in HEK293 – cell-based, luminescence, dry powder, counter-screen for Pax8 inhibitor project, dose response (AID 743020); type: functional
[24] = tested on: HeLa; test: viability loss in HeLa cells – cell-based, ATP luminescence, cherry-pick samples, cytotoxicity control, dose response (AID 687004); type: functional; conditions: Homo sapiens
[25] = microbe, parasite or virus in culture; type: functional; conditions: Mycobacterium tuberculosis
[26] = molecular target: T7, Probable nicotinate-nucleotide adenylyltransferase (Staphylococcus aureus (strain N315), UniProt P65502); type: functional, Staphylococcus aureus subsp. aureus N315;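 on IC50 Mean: confirmatory dose-response retesting of NadD inhibitor hits first found in an ultra-high-throughput screen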
T7 sequence (P65502 whole entry): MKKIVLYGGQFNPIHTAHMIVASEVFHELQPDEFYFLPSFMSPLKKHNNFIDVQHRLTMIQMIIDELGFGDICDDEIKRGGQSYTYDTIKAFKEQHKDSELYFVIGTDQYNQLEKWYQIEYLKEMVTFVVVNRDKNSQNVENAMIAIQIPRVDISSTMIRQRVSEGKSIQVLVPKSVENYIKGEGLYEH

[27] = molecular target: T7, Probable nicotinate-nucleotide adenylyltransferase; type: functional, Staphylococcus aureus subsp. aureus N315; conditions: read-out: IC50_Mean
[28] = molecular target: T8, Cytochrome P450 1A2 (Homo sapiens, UniProt P05177);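 further: PubChem cytochrome P450 panel assay, CYP1A2 panel member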
T8 sequence (P05177 whole entry): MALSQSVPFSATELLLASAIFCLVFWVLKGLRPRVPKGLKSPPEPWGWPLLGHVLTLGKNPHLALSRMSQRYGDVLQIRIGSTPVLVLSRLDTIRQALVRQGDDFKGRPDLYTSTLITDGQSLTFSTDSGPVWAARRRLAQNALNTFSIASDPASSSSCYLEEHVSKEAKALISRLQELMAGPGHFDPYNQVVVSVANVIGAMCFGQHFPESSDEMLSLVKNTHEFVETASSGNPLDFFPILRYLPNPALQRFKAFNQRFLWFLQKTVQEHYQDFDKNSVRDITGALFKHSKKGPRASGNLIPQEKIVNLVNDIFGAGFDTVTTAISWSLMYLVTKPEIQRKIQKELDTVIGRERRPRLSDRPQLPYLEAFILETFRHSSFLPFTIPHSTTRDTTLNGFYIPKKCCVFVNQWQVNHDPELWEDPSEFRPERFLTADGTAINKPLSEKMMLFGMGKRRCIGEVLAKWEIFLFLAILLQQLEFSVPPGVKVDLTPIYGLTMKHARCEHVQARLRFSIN

[29] = Trypanosoma cruzi growth suppression in host cells – NIH3T3 host cells, beta-gal luminescence, confirmation (AID 2044); type: functional, cell-based;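 further: intracellular parasites grown in NIH/3T3 mouse fibroblasts as host cells; luminescent beta-galactosidase reporter signal from transgenic T. cruzi replicating inside host cells; inhibitors lower the luminescence signal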
[30] = NIH3T3 cell viability loss – ATP luminescence, mouse fibroblasts, counter-screen, dose response (AID 2010); type: functional, cell-based;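 further: cells exposed to compound for about 90 hours before reading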
[31] = HEK-293T viability loss after treatment – luminescence, T-cell screen hits, cytotoxicity control for TCR NF-kB inhibitor project, dose response (AID 489026); type: functional, cell-based;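 further: cells exposed to compound about 14 hours before the viability readout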
[32] = Counterscreen for activators of the function of SWI/SNF related, matrix associated, actin dependent regulator of chromatin, subfamily a, member 2 (SMARCA2, BRM): Luminescence-based cell-based high throughput dose response assay to identify non-selective compounds using the VP16 reporter assay.; type: functional
[33] = cells
[34] = molecular target: T9, Microphthalmia-associated transcription factor (Homo sapiens, UniProt O75030); test: reducers of TRPM1 reporter luminescence, concentration series – cell-based, SK-MEL-5, cherry-picked, set 3, MITF inhibitor project, dose response (AID 493073); type: functional;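 further: SK-MEL-5 melanoma cells with luciferase driven by the MITF target TRPM1 promoter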
T9 sequence (O75030 whole entry): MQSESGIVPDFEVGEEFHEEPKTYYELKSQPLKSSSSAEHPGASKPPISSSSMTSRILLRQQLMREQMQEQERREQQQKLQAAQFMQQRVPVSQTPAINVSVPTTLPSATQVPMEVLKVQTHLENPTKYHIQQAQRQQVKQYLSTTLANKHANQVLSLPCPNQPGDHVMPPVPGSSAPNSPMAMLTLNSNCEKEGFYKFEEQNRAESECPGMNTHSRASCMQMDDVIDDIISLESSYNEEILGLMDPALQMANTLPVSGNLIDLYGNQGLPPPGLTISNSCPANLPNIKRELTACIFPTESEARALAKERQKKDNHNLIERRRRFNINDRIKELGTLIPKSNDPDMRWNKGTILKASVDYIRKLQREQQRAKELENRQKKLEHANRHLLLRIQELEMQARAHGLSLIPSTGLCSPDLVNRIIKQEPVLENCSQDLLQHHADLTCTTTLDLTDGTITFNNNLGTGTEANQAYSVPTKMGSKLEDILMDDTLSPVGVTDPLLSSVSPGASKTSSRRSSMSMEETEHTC

[35] = molecular target: SWI/SNF-related matrix-associated actin-dependent regulator of chromatin subfamily A member 2 (Homo sapiens, UniProt P51531); test: Luminescence-based cell-based high throughput dose response assay to identify activators of the function of SWI/SNF related, matrix associated, actin dependent regulator of chromatin, subfamily a, member 2 (SMARCA2, BRM).; type: functional
[36] = molecular target: Botulinum neurotoxin type F (Clostridium botulinum, UniProt P30996); test: High-throughput multiplex microsphere dose response for inhibitors of toxin protease, specifically Botulinum neurotoxin light chain F protease, compounds from Cherry Pick 02.; type: functional; conditions: read-out: EC50_MICROM
Chain of Botulinum neurotoxin type F (P30996 1-436 limits assumed): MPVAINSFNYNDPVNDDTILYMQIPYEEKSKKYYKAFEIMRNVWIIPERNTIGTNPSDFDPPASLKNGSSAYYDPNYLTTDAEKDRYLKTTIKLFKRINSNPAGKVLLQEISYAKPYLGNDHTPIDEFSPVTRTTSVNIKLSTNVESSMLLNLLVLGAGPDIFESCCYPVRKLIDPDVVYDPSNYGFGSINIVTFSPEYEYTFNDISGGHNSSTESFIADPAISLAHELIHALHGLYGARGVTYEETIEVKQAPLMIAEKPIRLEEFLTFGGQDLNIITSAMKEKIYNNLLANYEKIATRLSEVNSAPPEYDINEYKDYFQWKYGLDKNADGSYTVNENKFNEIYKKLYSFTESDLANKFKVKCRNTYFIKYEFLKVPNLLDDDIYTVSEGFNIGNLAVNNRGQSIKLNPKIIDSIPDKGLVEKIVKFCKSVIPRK

Chain of Potassium channel subfamily K member 9 (Q9NPC2 whole entry): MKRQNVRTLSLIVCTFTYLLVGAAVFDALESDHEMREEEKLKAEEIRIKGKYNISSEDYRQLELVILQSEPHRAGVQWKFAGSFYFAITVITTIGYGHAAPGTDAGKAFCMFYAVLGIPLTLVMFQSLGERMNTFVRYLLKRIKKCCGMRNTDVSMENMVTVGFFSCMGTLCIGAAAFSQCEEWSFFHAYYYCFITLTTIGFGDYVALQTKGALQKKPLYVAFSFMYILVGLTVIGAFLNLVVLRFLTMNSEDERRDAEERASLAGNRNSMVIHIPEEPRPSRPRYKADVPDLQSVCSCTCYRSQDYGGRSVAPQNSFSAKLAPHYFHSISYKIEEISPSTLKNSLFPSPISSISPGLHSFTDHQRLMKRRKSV

Cc1cccc(C(=O)Nc2cccc(NC(=O)c3cccc(Cl)c3)c2)c1
IC50 [1]: 13.4 µM (active)

COc1ccccc1NC(=O)c1ccc(-n2ccnc2)c([N+](=O)[O-])c1
IC50 [2]: 55.4 µM (inactive)
IC50 [3]: 83.3 µM (inactive)
IC50 [4]: 29 µM (inactive)

O=C(CN1CCN(C(=O)C2CCC2)CC1)Nc1ccc(F)cc1
AC50 [5]: 28.2 µM (active)
AC50 [6]: 21.4 µM (active)

c1ccc(-c2cc(N3CCCCC3)c3ccccc3n2)cc1
IC50 [7]: 3.92 µM (not active)
IC50 [8]: 14 µM (active)
IC50 [9]: 9.25 µM (active)

Cc1ccc(NC(=O)CCN2CCc3ccccc3C2)cc1
IC50 [10]: > 29.9 µM (inactive)
EC50 [11]: 1.12 µM (active)
IC50 [12]: 7.46 µM (active)
EC50 [13]: > 29.9 µM (inactive)

COc1cc(O)c(NC(C)=O)c2nonc12
IC50 [14]: 7.24 µM (active)
IC50 [15]: 74.2 µM (active)
IC50 [16]: 8.37 µM (active)
IC50 [17]: 14.6 µM (active)

CS(=O)(=O)c1cccc(C(=O)Nc2ccc(-c3nc4ccccc4[nH]3)cc2)c1
IC50 [18]: > 67.5 µM (inactive)
IC50 [19]: > 67.5 µM (inactive)

C[C@H](CO)N1C[C@H](C)[C@H](CN(C)Cc2ccc(C(F)(F)F)cc2)Oc2c(NC(=O)c3ccncc3)cccc2C1=O
AC50 [20]: 39 µM (inactive)

CCCCOc1ccc(C(=O)NO)cc1
IC50 [21]: 11.3 µM (inactive)

C[C@H](CO)N1C[C@H](C)[C@@H](CN(C)C(=O)Nc2cccc3ccccc23)OCCCC[C@H](C)Oc2ccc(NC(=O)c3ccncc3)cc2C1=O
AC50 [22]: 3.61 µM (active)
AC50 [23]: 49.1 µM (active)

CNC(=O)C[C@H]1CC[C@H]2[C@@H](COc3ccc(NC(=O)Nc4cccc(C#N)c4)cc3C(=O)N2C)O1
AC50 [24]: 27.2 µM (active)

O=c1/c(=C\c2ccc(O)cc2)sc2n1C(c1ccccc1)C(c1ccccc1)=NN=2 (stereo unspecified)
CC50 [25]: 33 µM (active)
IC50 [26]: 13.7 µM (active)
IC50 [27]: 32.1 µM (active)
AC50 [28]: 4.47 µM (inconclusive)

Nc1nc(O)c2[nH]nnc2n1 [8-AZAGUANINE]
EC50 [29]: < 0.1 µM (active)
EC50 [30]: 10.3 µM (active)
IC50 [31]: > 80 µM (inactive)
EC50 [32]: > 91.2 µM (inactive)
EC50 [33]: 0.153 µM (active)

Nc1nc2nn[nH]c2c(=O)[nH]1 [8-AZAGUANINE]
AC50 [34]: 0.875 µM (active)
EC50 [35]: > 91.2 µM (inactive)

O=C(O)CN1CCN(CC(=O)O)CCN(CC(=O)O)CCN(CC(=O)O)CC1 [TETRAXETAN]
EC50 [36]: > 20 µM (inactive)

Source: ChEMBL document CHEMBL1201862, “PubChem BioAssay data set” (2004)
